This assay concerns 598228-144-R-J1-PDC complex spheroid viability. Description: Anticancer human tumor 598228-144-R-J1-PDC patient-derived serous endometrial adenocarcinoma cell line growth inhibition [GQUAD]. Conditions: for viability, T/C: stronger effect = lower value. From the text: DNA G-quadruplex Stabilizer Agents in Combinations in Complex Spheroids
A high-throughput screen of multi-cell type tumor spheroids was designed to identify active combinations of DNA G-quadruplex stabilizer agents and targeted small molecules. Complex spheroids include a stromal component modeled by human endothelial cells (HUVEC) and fibroblasts modeled by human mesenchymal stem cells (MSCs). The concentration ranges selected for each drug and investigational agent were based upon clinically achievable concentrations if the clinical Cmax of the agent was known.
Compounds. The drugs and investigational agents: pidnarulex (CX-5461; NSC782164), APTO-253 (NSC789042), BRACO-19 (NSC847499), peposertib (NSC802822), ceralasertib (NSC780249), elimusertib (NSC800525), camonsertib (NSC841442), AZD-1390 (NSC803789), olaparib (NSC753686), talazoparib (NSC767125), ART-558 (NSC835418), sotorasib (NSC818433), MRTX-1133 (NSC836407), SN-38 (NSC673596), topotecan (NSC609699), etoposide (NSC141540), doxorubicin (NSC123127), gemcitabine (NSC613327), 5-fluorouracil (NSC19893), paclitaxel (NSC125973), vemurafenib (NSC761431), panobinostat (NSC761190), R-306465 (JNJ-16241199; NSC773264), adavosertib (NSC754352), TP-3654 (NSC805149), carboplatin (NSC241240), KSQ-4279 (NSC840948), and staurosporine (NSC755774) were obtained from the National Cancer Institute (NCI) Developmental Therapeutics Program Chemical Repository (34). The FDA-approved anticancer drug set is available from the NCI Developmental Therapeutics Program. […] The stock solutions were prepared in dimethyl sulfoxide (DMSO, Sigma-Aldrich, St. Louis, MO, cat. D2650) at 800-fold the tested concentration and stored at -70 degrees C prior to their use. All drugs and investigational agents were tested over a range starting from a high concentration at or near the clinical Cmax and decreasing in half-log increments. If the clinical Cmax for an agent had not been determined, the highest concentration tested was 10 microM.
2.3 Cell Culture. All cells were maintained in an incubator at 37 degrees C and 5% CO2 with 95% humidity. The PDC lines were cultured according to standard operating procedures established by the NCI PDMR. All PDCs were thawed and cultured in Matrigel-coated flasks prepared with a working solution of 1X Ham's F-12 nutrient mix, without supplementation (Invitrogen, cat. 11765054), 100 U/mL penicillin-streptomycin (Invitrogen, cat. 15140122), and 2.5% Matrigel (Corning Inc., cat. 354248) for the first three passages. The 857933-349-R-J2-PDC line was cultured in 6C/Colon 1B media, which includes advanced DMEM/F-12 (Thermo Fisher Scientific, cat. 12634028), 10 mM HEPES (Thermo Fisher Scientific, cat. 15630080), 1X GlutaMAX supplement (Thermo Fisher Scientific, cat. 35050061), 0.1 mg/mL primocin (InvivoGen, cat. ant-pm-2), 10% defined fetal bovine serum, heat inactivated (HyClone Laboratories Inc., cat. SH30070.03HI), 50% L-WRN conditioned media (ATCC, cat. CRL-3276), 1.25 mM N-Acetyl-L-cysteine (Sigma-Aldrich, cat. A9165), 10 mM nicotinamide (Sigma-Aldrich, cat. N0636), 1X B-27 supplement (Thermo Fisher Scientific, cat. 17504044), 1X N-2 supplement (Thermo Fisher Scientific, cat. 17502048), 10 microM Y-27632 dihydrochloride (Tocris Bioscience, cat. 1254), and 50 ng/mL human EGF recombinant protein (Thermo Fisher Scientific, cat. PHG0311). The 485176-168-R4-J1-PDC line was cultured in Panc media, which includes all 6C/Colon 1B media components plus 100 ng/mL human FGF-10 (Thermo Fisher Scientific, cat. 100-26), 500 nM SB-431542 (Selleckchem, cat. S1067), and gastrin (Tocris, cat. 3006).
[…]

Among the data in PubChem BioAssay AID2060506 (Molecular Pharmacology Branch, DTP, NCI, 2025) are viability, T/C and IC50 values, retold here.

Several values for one entry are separate records, joined by “and”; a condition that tells them apart may be missing. Equal values may be shown once. A value given as a limit tells only on which side of the number the result lay.
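Further: spheroids exposed to the agents for one week before reading.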
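Wherever viability, T/C is given: percent of vehicle DMSO control viability so 100% = untreated growth.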

As to `O=C(NO)c1cnc(N2CCN(S(=O)(=O)c3ccc4ccccc4c3)CC2)nc1`, the viability, T/C (compound 0.0316 µM) is 112% and 98.7% and 110%; the viability, T/C (compound 0.1 µM) was 49.4% and 40.7% and 59.1%; the viability, T/C (compound 0.316 µM) was 26.3% and 24.7% and 34%; the viability, T/C (compound 1 µM) is 0.49% and 0.43% and 0.75%; the viability, T/C (compound 3.16 µM) is 0.37% and 0.43% and 0.25%; the viability, T/C (compound 10 µM) is 0.35% and 0.28% and 0.23%. Besides, the concentration for half-maximal inhibition (IC50) (curve of compound) was 106 nM and 88 nM and 148 nM.

As to `O=C(c1cc(Cc2n[nH]c(=O)c3ccccc23)ccc1F)N1CCN(C(=O)C2CC2)CC1`, the viability, T/C runs as follows: (compound 0.0316 µM) 99.5% and 83.8% and 109%; (compound 0.1 µM) 96.3% and 85.6% and 96.4%; (compound 0.316 µM) 88.2% and 96.8% (2×); (compound 1 µM) 118% and 79.3% and 98.2%; (compound 3.16 µM) 81% and 79.2% and 90.8%; (compound 10 µM) 74.8% and 64.3% and 66.1%. Where the note is “curve of compound”, the 50% inhibitory concentration (IC50) is over 10000 nM.

Consider `Cc1[nH]c2ccccc2c1CCNCc1ccc(/C=C/C(=O)NO)cc1` + Cc1cnc(CNC(=O)c2c(=O)c3ccc(N4CCCN(C)CC4)nc3n3c2sc2ccccc23)cn1, for which the IC50 by setting is: (curve of first compound, second compound 0.0316 µM) 54.4 nM; (curve of first compound, second compound 0.1 µM) 20.2 nM; (curve of first compound, second compound 0.316 µM) 16.1 nM; (curve of first compound, second compound 1 µM) 11.6 nM; (curve of first compound, second compound 3.16 µM) under 0.999 nM; (curve of first compound, second compound 10 µM) under 0.999 nM. Further, the viability, T/C by setting is: (second compound 0.0316 µM, first compound 0.000999 µM) 104%; (second compound 0.0316 µM, first compound 0.00316 µM) 116%; (second compound 0.0316 µM, first compound 0.00999 µM) 85.1%; (second compound 0.0316 µM, first compound 0.0316 µM) 67.3%; (second compound 0.0316 µM, first compound 0.0999 µM) 32.4%; (second compound 0.0316 µM, first compound 0.316 µM) 0.76%. In addition, the viability, T/C reads like this: (second compound 0.1 µM, first compound 0.000999 µM) 80.7%; (second compound 0.1 µM, first compound 0.00316 µM) 71.8%; (second compound 0.1 µM, first compound 0.00999 µM) 61.1%; (second compound 0.1 µM, first compound 0.0316 µM) 41.6%; (second compound 0.1 µM, first compound 0.0999 µM) 26.2%; (second compound 0.1 µM, first compound 0.316 µM) 0.82%. Further, the viability, T/C (second compound 0.316 µM, first compound 0.000999 µM) is 69%; the viability, T/C (second compound 0.316 µM, first compound 0.00316 µM) was 66.9%; the viability, T/C (second compound 0.316 µM, first compound 0.00999 µM) was 53.3%; the viability, T/C (second compound 0.316 µM, first compound 0.0316 µM) is 43.7%; the viability, T/C (second compound 0.316 µM, first compound 0.0999 µM) was 18.4%; the viability, T/C (second compound 0.316 µM, first compound 0.316 µM) is 0.28%. The viability, T/C (second compound 1 µM, first compound 0.000999 µM) is 62.7%; the viability, T/C (second compound 1 µM, first compound 0.00316 µM) was 67.1%; the viability, T/C (second compound 1 µM, first compound 0.00999 µM) was 49.7%; the viability, T/C (second compound 1 µM, first compound 0.0316 µM) was 29.8%; the viability, T/C (second compound 1 µM, first compound 0.0999 µM) was 0.26%; the viability, T/C (second compound 1 µM, first compound 0.316 µM) was 0.37%. In addition, the viability, T/C (second compound 3.16 µM, first compound 0.000999 µM) was 49.4%; the viability, T/C (second compound 3.16 µM, first compound 0.00316 µM) is 49.4%; the viability, T/C (second compound 3.16 µM, first compound 0.00999 µM) was 39.9%; the viability, T/C (second compound 3.16 µM, first compound 0.0316 µM) was 0.32%; the viability, T/C (second compound 3.16 µM, first compound 0.0999 µM) is 0.34%; the viability, T/C (second compound 3.16 µM, first compound 0.316 µM) was 0.25%. Also, the viability, T/C was 20.6% (second compound 10 µM, first compound 0.000999 µM); 16.2% (second compound 10 µM, first compound 0.00316 µM); 0.43% (second compound 10 µM, first compound 0.00999 µM); 0.33% (second compound 10 µM, first compound 0.0316 µM); 0.34% (second compound 10 µM, first compound 0.0999 µM); 0.31% (second compound 10 µM, first compound 0.316 µM).

`Cc1cccc(N(C)C(=O)C2C(O)CCN2c2nc(C)cc(C(F)(F)F)c2C#N)c1` (stereo not drawn): the viability, T/C by setting is: (compound 0.0316 µM) 108% and 89.4% and 98.2%; (compound 0.1 µM) 92.7% and 78% and 99.4%; (compound 0.316 µM) 97.2% and 122% and 88.8%; (compound 1 µM) 99.8% and 91.5% and 99.9%; (compound 3.16 µM) 97.1% and 94.7% and 111%; (compound 10 µM) 93.6% and 88.1% and 102%. Also, the IC50 (curve of compound) was over 10000 nM.

For `CC(=O)O[C@H]1C(=O)[C@@]2(C)[C@H]([C@H](OC(=O)c3ccccc3)[C@]3(O)C[C@H](OC(=O)[C@H](O)[C@@H](NC(=O)c4ccccc4)c4ccccc4)C(C)=C1C3(C)C)[C@]1(OC(C)=O)CO[C@@H]1C[C@@H]2O`, the viability, T/C was 57.9% and 47.5% and 53% (compound 0.0316 µM); 41.1% and 46.1% and 48.6% (compound 0.1 µM); 52.3% and 37.7% and 45% (compound 0.316 µM); 42.3% and 36.8% and 38.9% (compound 1 µM); 47.5% (2×) and 40.5% (compound 3.16 µM); 49.1% and 43% and 39.1% (compound 10 µM). In addition, where the note is “curve of compound”, the half-inhibitory concentration (IC50) is 80.4 nM and < 31.6 nM and 50.4 nM.

`CC(C)(O)C1CCC(Nc2ccc3ncc(-c4cccc(C(F)(F)F)c4)n3n2)CC1` (stereo not drawn): the viability, T/C is, setting by setting: (compound 0.0316 µM) 112% and 97.2% and 85.6%; (compound 0.1 µM) 104% and 82.3% and 99.3%; (compound 0.316 µM) 99.6% and 94.8% and 96.7%; (compound 1 µM) 94% and 78.5% and 75.3%; (compound 3.16 µM) 28% and 26.1% and 20.6%; (compound 10 µM) 31.7% and 25.3% and 24.3%. In addition, where the note is “curve of compound”, the IC50 was 2200 nM and 1870 nM and 1730 nM.

For the molecule `COc1ccc([C@@H](O)c2cc(-c3ncnc4cc(N5CCOCC5)ccc34)c(F)cc2Cl)nn1`, the viability, T/C by setting is: (compound 0.0316 µM) 97.8% and 102% and 84.3%; (compound 0.1 µM) 90% and 101% and 85.3%; (compound 0.316 µM) 89.9% and 67.4% and 82.6%; (compound 1 µM) 74.7% and 62.1% and 82.8%; (compound 3.16 µM) 52.1% and 42.8% and 49.9%; (compound 10 µM) 32.1% and 30% and 30.5%. Further, the IC50 (curve of compound) was 3600 nM and 1800 nM and 3150 nM.

As for `CCc1c2c(nc3ccc(O)cc13)-c1cc3c(c(=O)n1C2)COC(=O)[C@]3(O)CC`, the viability, T/C (compound 0.000999 µM) is 72.2% and 58.7% and 67.3%; the viability, T/C (compound 0.00316 µM) was 58.9% and 53.5% and 66.5%; the viability, T/C (compound 0.00999 µM) was 59.5% and 47.4% and 56.2%; the viability, T/C (compound 0.0316 µM) is 43.9% and 44.5% and 44.3%; the viability, T/C (compound 0.0999 µM) was 28.2% and 31% and 38.2%; the viability, T/C (compound 0.316 µM) is 19.5% and 18.4% and 18.3%. For the same molecule, the concentration for half-maximal inhibition (IC50) (curve of compound) was 17.3 nM and 8.3 nM and 23.2 nM.

`Nc1ccn(C2OC(CO)C(O)C2(F)F)c(=O)n1` (stereo not drawn): the viability, T/C (compound 0.0316 µM) is 44.7% and 45.7% and 52.1%; the viability, T/C (compound 0.1 µM) is 46.9% and 45.7% and 47.2%; the viability, T/C (compound 0.316 µM) was 49.2% and 45.3% and 41.9%; the viability, T/C (compound 1 µM) was 52% and 47.8% and 53%; the viability, T/C (compound 3.16 µM) was 40.2% and 36.2% and 38.9%; the viability, T/C (compound 10 µM) is 47.3% and 43.5% and 45.3%. For the same molecule, for the setting “curve of compound”, the half-maximal inhibitory concentration (IC50) is under 31.6 nM.
